“And” between values parts separate entries of the source, which are not always exact repeats. Equal entries are not always repeated.
Conditions: Hot wire method

FC(F)(F)/C=C/Cl [(E)-1-chloro-3,3,3-trifluoroprop-1-ene]
Conditions | thermal conductivity
362.89 K, 26388 kPa, Liquid | 0.07962 W/m/K
362.94 K, 8395 kPa, Liquid | 0.06981 W/m/K
362.97 K, 8410 kPa, Liquid | 0.06989 W/m/K
363.01 K, 5513 kPa, Liquid | 0.06793 W/m/K
363.02 K, 5522 kPa, Liquid | 0.06801 W/m/K
363.04 K, 15375 kPa, Liquid | 0.07401 W/m/K
363.05 K, 588 kPa, Fluid (supercritical or subcritical phases) | 0.01642 W/m/K
363.05 K, 3030 kPa, Liquid | 0.06616 W/m/K
363.06 K, 3018 kPa, Liquid | 0.06615 W/m/K
363.06 K, 18623 kPa, Liquid | 0.07592 W/m/K
363.07 K, 781 kPa, Liquid | 0.06438 W/m/K
363.07 K, 11657 kPa, Liquid | 0.07182 W/m/K
363.07 K, 11679 kPa, Liquid | 0.07186 W/m/K
363.07 K, 15350 kPa, Liquid | 0.07393 W/m/K
363.07 K, 18631 kPa, Liquid | 0.07609 W/m/K
363.08 K, 794 kPa, Liquid | 0.06441 W/m/K
363.17 K, 485 kPa, Fluid (supercritical or subcritical phases) | 0.01636 W/m/K
363.25 K, 8386 kPa, Liquid | 0.0699 W/m/K
363.25 K, 8410 kPa, Liquid | 0.06983 W/m/K
363.28 K, 18567 kPa, Liquid | 0.07546 W/m/K
363.3 K, 5515 kPa, Liquid | 0.0679 W/m/K
363.3 K, 15333 kPa, Liquid | 0.0739 W/m/K
363.3 K, 18619 kPa, Liquid | 0.07574 W/m/K
363.31 K, 369 kPa, Fluid (supercritical or subcritical phases) | 0.01625 W/m/K
363.31 K, 5517 kPa, Liquid | 0.06789 W/m/K
363.32 K, 15362 kPa, Liquid | 0.07394 W/m/K
363.34 K, 11659 kPa, Liquid | 0.07179 W/m/K
363.35 K, 3013 kPa, Liquid | 0.06606 W/m/K
363.35 K, 11674 kPa, Liquid | 0.07181 W/m/K
363.36 K, 3021 kPa, Liquid | 0.06613 W/m/K
363.38 K, 789 kPa, Liquid | 0.06433 W/m/K
363.39 K, 791 kPa, Liquid | 0.06436 W/m/K
363.56 K, 18588 kPa, Liquid | 0.07568 W/m/K
363.56 K, 18589 kPa, Liquid | 0.07561 W/m/K
363.85 K, 18555 kPa, Liquid | 0.07553 W/m/K
363.86 K, 18574 kPa, Liquid | 0.07558 W/m/K
381.79 K, 728 kPa, Fluid (supercritical or subcritical phases) | 0.01756 W/m/K
381.91 K, 529 kPa, Fluid (supercritical or subcritical phases) | 0.01757 W/m/K
381.98 K, 885 kPa, Fluid (supercritical or subcritical phases) | 0.0177 W/m/K
381.99 K, 883 kPa, Fluid (supercritical or subcritical phases) | 0.01771 W/m/K
382.06 K, 727 kPa, Fluid (supercritical or subcritical phases) | 0.0176 W/m/K
382.19 K, 530 kPa, Fluid (supercritical or subcritical phases) | 0.01766 W/m/K
382.26 K, 884 kPa, Fluid (supercritical or subcritical phases) | 0.01776 W/m/K
382.27 K, 885 kPa, Fluid (supercritical or subcritical phases) | 0.01778 W/m/K
382.29 K, 1304 kPa, Liquid | 0.05933 W/m/K
382.3 K, 1303 kPa, Liquid | 0.0594 W/m/K
382.3 K, 7889 kPa, Liquid | 0.06498 W/m/K
382.3 K, 7898 kPa, Liquid | 0.065 W/m/K
382.32 K, 1195 kPa, Fluid (supercritical or subcritical phases) | 0.01851 W/m/K
382.32 K, 1196 kPa, Fluid (supercritical or subcritical phases) | 0.01849 W/m/K
382.35 K, 727 kPa, Fluid (supercritical or subcritical phases) | 0.01767 W/m/K
382.35 K, 20108 kPa, Liquid | 0.07266 W/m/K
382.36 K, 20093 kPa, Liquid | 0.07261 W/m/K
382.37 K, 6276 kPa, Liquid | 0.06375 W/m/K
382.38 K, 6283 kPa, Liquid | 0.06377 W/m/K
382.38 K, 35584 kPa, Liquid | 0.0803 W/m/K
382.39 K, 35567 kPa, Liquid | 0.08024 W/m/K
382.4 K, 16804 kPa, Liquid | 0.07075 W/m/K
382.41 K, 16825 kPa, Liquid | 0.07099 W/m/K
382.42 K, 33043 kPa, Liquid | 0.07905 W/m/K
382.42 K, 33046 kPa, Liquid | 0.07909 W/m/K
382.44 K, 13721 kPa, Liquid | 0.06888 W/m/K
382.45 K, 13744 kPa, Liquid | 0.06889 W/m/K
382.46 K, 28331 kPa, Liquid | 0.07696 W/m/K
382.47 K, 4293 kPa, Liquid | 0.06211 W/m/K
382.47 K, 28334 kPa, Liquid | 0.07681 W/m/K
382.48 K, 1001 kPa, Fluid (supercritical or subcritical phases) | 0.01789 W/m/K
382.48 K, 4301 kPa, Liquid | 0.06219 W/m/K
382.49 K, 529 kPa, Fluid (supercritical or subcritical phases) | 0.01769 W/m/K
382.49 K, 1000 kPa, Fluid (supercritical or subcritical phases) | 0.01794 W/m/K
382.5 K, 2615 kPa, Liquid | 0.06083 W/m/K
382.51 K, 2614 kPa, Liquid | 0.06065 W/m/K
382.51 K, 10968 kPa, Liquid | 0.06711 W/m/K
382.51 K, 10976 kPa, Liquid | 0.0674 W/m/K
382.53 K, 24122 kPa, Liquid | 0.07474 W/m/K
382.54 K, 24143 kPa, Liquid | 0.07473 W/m/K
382.55 K, 1308 kPa, Liquid | 0.0594 W/m/K
382.56 K, 884 kPa, Fluid (supercritical or subcritical phases) | 0.01781 W/m/K and 0.01779 W/m/K
382.56 K, 1302 kPa, Liquid | 0.05937 W/m/K
382.56 K, 7890 kPa, Liquid | 0.06497 W/m/K
382.56 K, 7897 kPa, Liquid | 0.06497 W/m/K
382.56 K, 8382 kPa, Liquid | 0.06533 W/m/K
382.56 K, 8389 kPa, Liquid | 0.06536 W/m/K
382.58 K, 20086 kPa, Liquid | 0.07258 W/m/K
382.58 K, 20109 kPa, Liquid | 0.07262 W/m/K
382.6 K, 1196 kPa, Fluid (supercritical or subcritical phases) | 0.01858 W/m/K
382.61 K, 1196 kPa, Fluid (supercritical or subcritical phases) | 0.01858 W/m/K
382.62 K, 35572 kPa, Liquid | 0.07991 W/m/K
382.63 K, 6276 kPa, Liquid | 0.06372 W/m/K
382.63 K, 35594 kPa, Liquid | 0.08017 W/m/K
382.64 K, 727 kPa, Fluid (supercritical or subcritical phases) | 0.01771 W/m/K
382.64 K, 6276 kPa, Liquid | 0.06375 W/m/K
382.65 K, 16810 kPa, Liquid | 0.07072 W/m/K
382.65 K, 33011 kPa, Liquid | 0.079 W/m/K
382.66 K, 16821 kPa, Liquid | 0.07073 W/m/K
382.66 K, 33037 kPa, Liquid | 0.07905 W/m/K
382.7 K, 13733 kPa, Liquid | 0.0689 W/m/K
382.71 K, 13730 kPa, Liquid | 0.06888 W/m/K
382.71 K, 28321 kPa, Liquid | 0.07678 W/m/K
382.71 K, 28350 kPa, Liquid | 0.07685 W/m/K
382.72 K, 4298 kPa, Liquid | 0.06213 W/m/K
382.74 K, 4301 kPa, Liquid | 0.06214 W/m/K
382.77 K, 2602 kPa, Liquid | 0.06057 W/m/K
382.77 K, 2621 kPa, Liquid | 0.06066 W/m/K
382.77 K, 10954 kPa, Liquid | 0.06703 W/m/K
382.77 K, 24142 kPa, Liquid | 0.07452 W/m/K
382.78 K, 1001 kPa, Fluid (supercritical or subcritical phases) | 0.01826 W/m/K
382.78 K, 24124 kPa, Liquid | 0.07466 W/m/K
382.79 K, 1000 kPa, Fluid (supercritical or subcritical phases) | 0.0181 W/m/K
382.79 K, 10954 kPa, Liquid | 0.06707 W/m/K
382.81 K, 530 kPa, Fluid (supercritical or subcritical phases) | 0.01767 W/m/K
382.82 K, 7886 kPa, Liquid | 0.06511 W/m/K
382.83 K, 1306 kPa, Liquid | 0.05933 W/m/K
382.83 K, 8368 kPa, Liquid | 0.06524 W/m/K
382.83 K, 8383 kPa, Liquid | 0.06552 W/m/K
382.84 K, 1310 kPa, Liquid | 0.05941 W/m/K
382.84 K, 7894 kPa, Liquid | 0.06495 W/m/K
382.84 K, 20089 kPa, Liquid | 0.07256 W/m/K
382.85 K, 20100 kPa, Liquid | 0.07257 W/m/K
382.87 K, 883 kPa, Fluid (supercritical or subcritical phases) | 0.01794 W/m/K
382.87 K, 885 kPa, Fluid (supercritical or subcritical phases) | 0.01792 W/m/K
382.87 K, 35575 kPa, Liquid | 0.08013 W/m/K
382.87 K, 35578 kPa, Liquid | 0.08012 W/m/K
382.91 K, 1197 kPa, Fluid (supercritical or subcritical phases) | 0.01873 W/m/K
382.91 K, 6263 kPa, Liquid | 0.06365 W/m/K
382.91 K, 6280 kPa, Liquid | 0.06372 W/m/K
382.91 K, 33006 kPa, Liquid | 0.07896 W/m/K
382.91 K, 33028 kPa, Liquid | 0.07899 W/m/K
382.92 K, 16811 kPa, Liquid | 0.07071 W/m/K
382.92 K, 16817 kPa, Liquid | 0.0707 W/m/K
382.96 K, 28308 kPa, Liquid | 0.07685 W/m/K
382.97 K, 727 kPa, Fluid (supercritical or subcritical phases) | 0.01778 W/m/K
382.97 K, 28333 kPa, Liquid | 0.07679 W/m/K
382.98 K, 13709 kPa, Liquid | 0.06879 W/m/K
382.98 K, 13730 kPa, Liquid | 0.06887 W/m/K
383 K, 4290 kPa, Liquid | 0.06207 W/m/K
383.01 K, 4292 kPa, Liquid | 0.0621 W/m/K
383.03 K, 24102 kPa, Liquid | 0.07464 W/m/K
383.04 K, 24119 kPa, Liquid | 0.07466 W/m/K
383.05 K, 10954 kPa, Liquid | 0.06701 W/m/K
383.06 K, 2617 kPa, Liquid | 0.06075 W/m/K
383.06 K, 10970 kPa, Liquid | 0.06706 W/m/K
383.07 K, 2612 kPa, Liquid | 0.06066 W/m/K
383.08 K, 1001 kPa, Fluid (supercritical or subcritical phases) | 0.01823 W/m/K
383.08 K, 1002 kPa, Fluid (supercritical or subcritical phases) | 0.01821 W/m/K

From the NIST ThermoML archive (doi:10.1021/acs.jced.7b00106)
